Experiment [1] concerns MKN-45/Ubc-luc cells (unspecific inhibition of luciferase expression or activity). As to the kind of experiment: Reporter gene assay specificity control (Ubc-Luc), MKN-45. Particulars: Homo sapiens; MKN-45/Ubc-luc specificity control, 24 hrs. Type of experiment: cell-based. The text has this:
(§1) NCI-H2052 mesothelioma cells (RRID: CVCL_1518) bearing Hippo-pathway inactivating mutations upstream of YAP (homozygous deletion of LATS2 and mutation of NF2) were obtained from ATCC (American Type Culture Collection), while SF268 glioma cells (RRID: CVCL_1689) overexpressing YAP due to genomic amplification were obtained from the NCI (National Cancer Institute). MKN-45 gastric adenocarcinoma cells (RRID: CVCL_0434) genomically deleted for YAP were obtained from the JCRB (Japanese Collection of Research Bioresources) Cell Bank.
As a specificity control, MKN-45 cells were stably transduced with a Ubc-Luc reporter construct, in which constitutive expression of firefly luciferase is driven by the promoter of the ubiquitin C housekeeping gene. The resulting cell line, MKN-45/Ubc-luc, was selected and maintained in growth medium (RPMI 1640 (Amimed Cat #1-41F01-I), 2 mM L-Glutamine (Amimed Cat #5-10K50-H), 10% fetal calf serum (Amimed Cat #2-01F30-I Lot K08815P), 1% MEM Non-essential amino acids (Amimed Cat #5-13K00-H), 1× Penicillin/Streptomycin (Amimed Cat #4-01F00-H)) containing 1 μg/ml blasticidin (Gibco Cat #A11139-03).
(§2) Stock solutions of compounds were prepared at a concentration of 10 mM in DMSO and stored at 4° C. Where necessary to afford a full dose-response curve, the stock solutions were pre-diluted in DMSO to 1′000-fold the desired reduced start concentration. On the day after cell seeding, eleven 2-fold serial dilutions of each compound were dispensed directly into the cell assay plates using a HP 300D non-contact Digital Dispenser (TECAN). The final concentration of DMSO was normalized to 0.1% in all wells.
The ability of compounds to inhibit YAP-dependent transcription was assessed in NCI-H2052 Tet-On shYAP_2371 pLenti6 MCAT_Luc and SF268-MCAT_Luc, dox-i-shYAPLevy (Clone 13) cells, while specificity (lack of unspecific inhibition of luciferase expression or activity) was assessed in MKN-45/Ubc-luc cells. The individual cell lines were seeded at 2′500 cells/20 μl/well into white-wall, clear-bottom 384-well plates (Greiner, Cat #781098) and incubated over night at 37° C. prior to addition of serial compound dilutions as described above. Following incubation for 24 hrs at 37° C., compound-mediated modulation of reporter-gene activity was quantified 5 min after addition 20 μL […] BrightGlo (Promega Cat #E2620), by measuring luminescence intensity on a multi-mode plate-reader (TECAN) with an integration time of 100 ms.
(§3) For data analysis, the assay background value determined in wells containing medium, but no cells, was subtracted from all data points.

In experiment [2] the target is Avi-humanTEAD4^217-434 / Cy5 labeled humanYAP^60-100 (Homo sapiens (Human), UniProt Q15561). Briefly: In-vitro biochemical TR-FRET assay (TEAD4/YAP). In kind it is binding. Particulars: 1 h at room temperature. As to the method: N-terminus Cy5 labeled humanYAP^60-100 (20 nM) was then added to this preparation. Compounds were dissolved at 10 mM in 100% DMSO and serial dilutions were made in 100% DMSO. The diluted compound solutions were incubated in white 384-well plates (Greiner Bio-One) for 1 h at room temperature with the above described mix. The final DMSO concentration present in the assay was 1%. […] The IC50 values were estimated by fitting the data by nonlinear fit regression (GraphPad Prism).
(In general: In TR-FRET formats the signal depends on donor and acceptor labels being close together.)

Experiment [3] deals with YAP-dependent transcription in SF268-MCAT_Luc_dox-i-shYAPLevy (Clone 13) cells. As to the kind of experiment: YAP reporter gene activity assay (MCAT-Luc), SF268. Type of experiment: cell-based. As to conditions: Homo sapiens, SF-268; SF268 MCAT_Luc, 24 hrs. In general terms: A reporter such as luciferase makes a cellular process visible.
In experiment [4] the test system is SF268-MCAT_Luc_dox-i-shYAPLevy (Clone 13) cells. As to the kind of experiment: Proliferation assay (resazurin/AlamarBlue), SF268. As to conditions: Homo sapiens, SF-268; SF268, 72 hours. In kind it is cell-based.
From the text: as §1, §2
(§4) After incubation for 72 hours at 37° C., compound-mediated modulation of cell viability was quantified as follows. […] To enable differentiation of cytotoxic from cytostatic compound effects, the number of viable cells on the day of compound addition (day 0) was assessed in a separate cell plate and used to assess the extent of cell viability suppression as described in the following section.
as §3
(§5) The extent of growth inhibition and potential cell kill was assessed by comparing the resorufin levels in compound-treated cells with those present at the time of compound addition. To this end, the following conditional concept was programmatically applied in HELIOS to calculate % growth (% G) for each compound-treated well: % G=(T−V0)/V0))*100 when T<V0, and % G=(T−V0)/(V−V0)))*100 when T≥V0, where V0 is the viability level at time of compound addition, while V and T represent vehicle-control and compound-treated viability levels, respectively, at the end of the compound incubation. 100%, 0% and −100% signify absence of growth inhibition, growth stasis, and complete cell kill, respectively. Compound concentrations leading to half-maximal growth inhibition (GI50) and residual cell viability at the highest tested compound concentration (Data(cmax), expressed in percent) were routinely calculated.
In general terms: The colour change of resazurin is a common sign of viable cells or microbes.

The subject of experiment [5] is YAP-dependent transcription in NCI-H2052 Tet-On shYAP_2371 pLenti6 MCAT_Luc cells. As to the kind of experiment: YAP reporter gene activity assay (MCAT-Luc), NCI-H2052. Particulars: Homo sapiens, 24 hrs. In kind it is cell-based.
The test system of experiment [6] is NCI-H2052 Tet-On shYAP_2371 pLenti6 MCAT_Luc cells. Briefly: Proliferation assay (resazurin/AlamarBlue), NCI-H2052. Type of experiment: cell-based. As to conditions: Homo sapiens; NCI-H2052, 72 hours.
From the text: as §1, §2, §4, §3, §5

A further experiment has as its system MKN-45/Ubc-luc cells. As to the kind of experiment: Proliferation assay (resazurin/AlamarBlue), MKN-45. Type of experiment: cell-based. As to conditions: Homo sapiens; MKN-45, 72 hours.
From the text: as §1
As a specificity control, MKN-45 cells were stably transduced with a Ubc-Luc reporter construct, in which constitutive expression of firefly luciferase is driven by the promoter of the ubiquitin C housekeeping gene.
as §2, §4, §3, §5

We go through 3 compounds from patent publication US20240382600A1, “BIFUNCTIONAL DEGRADERS COMPRISING A TEAD BINDER” (Novartis AG, priority 2021, published 2024).

Avi-humanTEAD4^217-434 / Cy5 labeled humanYAP^60-100, sequence (Q15561 217-434): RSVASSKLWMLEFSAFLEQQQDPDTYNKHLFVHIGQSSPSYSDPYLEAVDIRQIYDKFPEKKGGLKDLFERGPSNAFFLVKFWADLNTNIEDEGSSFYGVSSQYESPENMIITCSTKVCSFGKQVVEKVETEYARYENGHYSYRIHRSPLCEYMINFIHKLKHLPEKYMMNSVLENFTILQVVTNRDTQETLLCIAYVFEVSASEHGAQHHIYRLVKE

As for `COc1ccc(C(=O)NCCCCCn2cc(-c3ccc4c(c3)CN(C3CCC(=O)NC3=O)C4=O)nn2)c(-c2c(Cl)c(F)cc3c2C[C@@](CN)(c2ccccc2)O3)c1F` (stereo partly drawn) [Example 37, 2-((2S,4S)-2-(aminomethyl)-5-chloro-6-fluoro-2-phenyl-2,3-dihydrobenzofuran-4-yl)-N-(5-(4-(2-(2,6-dioxopiperidin-3-yl)-1-oxoisoindolin-5-yl)-1H-1,2,3-triazol-1-yl)pentyl)-3-fluoro-4-methoxybenzamide], the IC50 turned out to be 15.9 µM in experiment [1], 0.12 µM in experiment [2], 0.42 µM in experiment [3] and 3.35 µM in experiment [5]. The results for the 50% growth inhibitory concentration (GI50) (in experiment [4]; in experiment [6]; with MKN-45/Ubc-luc cells) were 14.9 µM, 6.05 µM and 12.5 µM, respectively.

In the case of `CNC(=O)c1cnc(OCCOCCOCCn2cc(-c3cccc(N4CCC(=O)NC4=O)c3)nn2)c(F)c1-c1c(Cl)c(F)cc2c1C[C@](c1ccccc1)([C@@H]1CCCN1)O2` (atropisomer, axis not shown) [Example 34, 4-((2S,4S)-5-chloro-6-fluoro-2-phenyl-2-((S)-pyrrolidin-2-yl)-2,3-dihydrobenzofuran-4-yl)-6-(2-(2-(2-(4-(3-(2,4-dioxotetrahydropyrimidin-1(2H)-yl)phenyl)-1H-1,2,3-triazol-1-yl)ethoxy)ethoxy)ethoxy)-5-fluoro-N-methylnicotinamide], the half-maximal inhibitory concentration (IC50) in experiment [1] was over 20 µM; in experiment [2], 0.0069 µM; in experiment [3] it was 3.53 µM; in experiment [5], 2.8 µM. The GI50 is 19.3 µM in experiment [4], 2.27 µM in experiment [6] and over 20 µM in the experiment with MKN-45/Ubc-luc cells.

For the compound `CNC(=O)c1cnc(OCCOCCOCCn2cc(-c3ccc4c(c3)CN(C3CCC(=O)NC3=O)C4=O)nn2)c(F)c1-c1c(Cl)c(F)cc2c1C[C@](c1ccccc1)([C@@H]1CCCN1)O2` (stereo partly drawn) [Example 33, 4-((2S,4S)-5-chloro-6-fluoro-2-phenyl-2-((S)-pyrrolidin-2-yl)-2,3-dihydrobenzofuran-4-yl)-6-(2-(2-(2-(4-(2-(2,6-dioxopiperidin-3-yl)-1-oxoisoindolin-5-yl)-1H-1,2,3-triazol-1-yl)ethoxy)ethoxy)ethoxy)-5-fluoro-N-methylnicotinamide], the concentration for half-maximal inhibition (IC50) in experiment [1] is over 20 µM; in experiment [2], 0.094 µM; in experiment [3], 1.34 µM; in experiment [5], 3.14 µM. In addition, the GI50 was over 20 µM in experiment [4], 4.4 µM in experiment [6] and over 20 µM with MKN-45/Ubc-luc cells.

As a reminder, the IC50 is the midpoint of a concentration-inhibition curve. The GI50 is the concentration giving 50% growth inhibition. Lower therefore signals greater sensitivity of the cells.
